Experimental data reported in ChEMBL document CHEMBL4014348, “Design, Multicomponent Synthesis, and Anticancer Activity of a Focused Histone Deacetylase (HDAC) Inhibitor Library with Peptoid-Based Cap Groups” (J Med Chem, 2017).
Values joined by “and” are separate entries in the source; they are usually repeats but may differ in a detail not shown here. Equal values may be shown once.

Tests used:
[1] = biological target: T1, Histone deacetylase 1/2/3/6 (Homo sapiens, UniProt Q13547+O15379+Q9UBN7+Q92769); assay: Inhibition of HDAC1/2/3/6 in human Cal27CisR cells using Boc-Lys(epsilon-Ac)-AMC as substrate preincubated for 18 hrs followed by substrate addition measured after 3 hrs by fluorescence assay; format: cell-based
[2] = biological target: T1, Histone deacetylase 1/2/3/6; assay: Inhibition of HDAC1/2/3/6 in human A2780 cells using Boc-Lys(epsilon-Ac)-AMC as substrate preincubated for 18 hrs followed by substrate addition measured after 3 hrs by fluorescence assay; format: cell-based
[3] = Cytotoxicity against human Cal27CisR cells assessed as cell survival after 72 hrs by MTT assay; format: functional, cell-based
[4] = biological target: T1, Histone deacetylase 1/2/3/6; assay: Inhibition of HDAC1/2/3/6 in human A2780cisR cells using Boc-Lys(epsilon-Ac)-AMC as substrate preincubated for 18 hrs followed by substrate addition measured after 3 hrs by fluorescence assay; format: cell-based
[5] = tested on: A2780; assay: Cytotoxicity against human A2780 cells assessed as cell survival after 72 hrs by MTT assay; format: functional, cell-based; settings: A2780, 72 h
[6] = biological target: T1, Histone deacetylase 1/2/3/6; assay: Inhibition of HDAC1/2/3/6 in human Cal27 cells using Boc-Lys(epsilon-Ac)-AMC as substrate preincubated for 18 hrs followed by substrate addition measured after 3 hrs by fluorescence assay; format: cell-based
[7] = tested on: A2780cisR; assay: Cytotoxicity against human A2780cisR cells assessed as cell survival after 72 hrs by MTT assay; format: functional, cell-based
[8] = tested on: CAL-27; assay: Cytotoxicity against human CAL27 cells assessed as cell survival after 72 hrs by MTT assay; format: functional, cell-based; settings: CAL-27, 72 h
[9] = biological target: T2, Protein deacetylase HDAC6 (Homo sapiens, UniProt Q9UBN7); assay: Inhibition of N-terminal GST-tagged recombinant human HDAC6 expressed in baculovirus infected Sf9 insect cells using Z-(Ac)Lys-AMC as substrate measured after 90 mins by fluorescence assay
T2 sequence (Q9UBN7 whole entry): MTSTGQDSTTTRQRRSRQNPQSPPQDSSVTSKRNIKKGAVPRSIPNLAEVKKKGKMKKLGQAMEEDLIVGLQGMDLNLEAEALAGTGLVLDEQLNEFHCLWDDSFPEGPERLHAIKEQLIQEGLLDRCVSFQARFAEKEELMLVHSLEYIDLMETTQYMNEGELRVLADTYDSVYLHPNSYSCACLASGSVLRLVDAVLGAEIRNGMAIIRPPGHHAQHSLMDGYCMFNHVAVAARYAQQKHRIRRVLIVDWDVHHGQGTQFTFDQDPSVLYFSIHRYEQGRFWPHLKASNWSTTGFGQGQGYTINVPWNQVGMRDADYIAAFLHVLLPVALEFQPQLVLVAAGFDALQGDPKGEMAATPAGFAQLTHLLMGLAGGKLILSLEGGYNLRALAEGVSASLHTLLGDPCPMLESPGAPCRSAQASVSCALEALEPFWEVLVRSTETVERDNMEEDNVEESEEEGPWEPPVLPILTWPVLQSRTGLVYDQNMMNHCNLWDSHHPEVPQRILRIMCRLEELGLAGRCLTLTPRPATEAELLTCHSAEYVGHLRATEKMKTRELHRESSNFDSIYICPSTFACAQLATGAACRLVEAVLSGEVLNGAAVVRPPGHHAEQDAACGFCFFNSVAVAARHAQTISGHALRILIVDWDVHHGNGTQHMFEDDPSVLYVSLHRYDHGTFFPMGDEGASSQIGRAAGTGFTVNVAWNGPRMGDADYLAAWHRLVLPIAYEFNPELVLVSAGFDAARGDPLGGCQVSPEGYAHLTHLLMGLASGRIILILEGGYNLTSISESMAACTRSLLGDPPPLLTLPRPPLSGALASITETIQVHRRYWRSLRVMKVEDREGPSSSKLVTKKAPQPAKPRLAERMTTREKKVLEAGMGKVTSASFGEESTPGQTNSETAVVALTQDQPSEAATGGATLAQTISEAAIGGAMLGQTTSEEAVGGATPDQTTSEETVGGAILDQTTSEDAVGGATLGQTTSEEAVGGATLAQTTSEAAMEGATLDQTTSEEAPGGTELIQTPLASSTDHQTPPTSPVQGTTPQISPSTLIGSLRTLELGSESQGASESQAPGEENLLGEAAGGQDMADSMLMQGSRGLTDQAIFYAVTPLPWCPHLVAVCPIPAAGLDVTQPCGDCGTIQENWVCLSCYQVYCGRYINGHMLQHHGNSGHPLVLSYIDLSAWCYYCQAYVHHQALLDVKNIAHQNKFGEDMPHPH

[10] = biological target: Histone deacetylase 3/Nuclear receptor corepressor 2 (HDAC3/NCoR2) (Homo sapiens, UniProt O15379); assay: Inhibition of full length human recombinant C-terminal His-tagged HDAC3/NcoR2 expressed in baculovirus infected Sf9 insect cells using Boc-Lys(epsilon-Ac)-AMC as substrate measured after 90 mins by fluorescence assay
Chain of Histone deacetylase 3/Nuclear receptor corepressor 2 (HDAC3/NCoR2) (O15379 whole entry): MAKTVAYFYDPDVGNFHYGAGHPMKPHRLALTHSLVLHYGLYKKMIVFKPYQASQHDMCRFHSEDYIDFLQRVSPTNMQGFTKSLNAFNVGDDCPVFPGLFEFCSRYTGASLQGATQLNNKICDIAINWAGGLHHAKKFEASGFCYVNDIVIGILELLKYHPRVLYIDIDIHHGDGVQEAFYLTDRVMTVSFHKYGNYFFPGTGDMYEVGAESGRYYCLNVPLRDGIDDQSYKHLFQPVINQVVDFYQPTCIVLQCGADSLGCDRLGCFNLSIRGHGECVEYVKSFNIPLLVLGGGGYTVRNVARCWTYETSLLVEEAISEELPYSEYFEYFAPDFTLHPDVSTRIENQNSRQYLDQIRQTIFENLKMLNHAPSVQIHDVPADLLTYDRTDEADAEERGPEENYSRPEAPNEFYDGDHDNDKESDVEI
Chain of Histone deacetylase 3/Nuclear receptor corepressor 2 (HDAC3/NCoR2) (Q9Y618 whole entry, further chain): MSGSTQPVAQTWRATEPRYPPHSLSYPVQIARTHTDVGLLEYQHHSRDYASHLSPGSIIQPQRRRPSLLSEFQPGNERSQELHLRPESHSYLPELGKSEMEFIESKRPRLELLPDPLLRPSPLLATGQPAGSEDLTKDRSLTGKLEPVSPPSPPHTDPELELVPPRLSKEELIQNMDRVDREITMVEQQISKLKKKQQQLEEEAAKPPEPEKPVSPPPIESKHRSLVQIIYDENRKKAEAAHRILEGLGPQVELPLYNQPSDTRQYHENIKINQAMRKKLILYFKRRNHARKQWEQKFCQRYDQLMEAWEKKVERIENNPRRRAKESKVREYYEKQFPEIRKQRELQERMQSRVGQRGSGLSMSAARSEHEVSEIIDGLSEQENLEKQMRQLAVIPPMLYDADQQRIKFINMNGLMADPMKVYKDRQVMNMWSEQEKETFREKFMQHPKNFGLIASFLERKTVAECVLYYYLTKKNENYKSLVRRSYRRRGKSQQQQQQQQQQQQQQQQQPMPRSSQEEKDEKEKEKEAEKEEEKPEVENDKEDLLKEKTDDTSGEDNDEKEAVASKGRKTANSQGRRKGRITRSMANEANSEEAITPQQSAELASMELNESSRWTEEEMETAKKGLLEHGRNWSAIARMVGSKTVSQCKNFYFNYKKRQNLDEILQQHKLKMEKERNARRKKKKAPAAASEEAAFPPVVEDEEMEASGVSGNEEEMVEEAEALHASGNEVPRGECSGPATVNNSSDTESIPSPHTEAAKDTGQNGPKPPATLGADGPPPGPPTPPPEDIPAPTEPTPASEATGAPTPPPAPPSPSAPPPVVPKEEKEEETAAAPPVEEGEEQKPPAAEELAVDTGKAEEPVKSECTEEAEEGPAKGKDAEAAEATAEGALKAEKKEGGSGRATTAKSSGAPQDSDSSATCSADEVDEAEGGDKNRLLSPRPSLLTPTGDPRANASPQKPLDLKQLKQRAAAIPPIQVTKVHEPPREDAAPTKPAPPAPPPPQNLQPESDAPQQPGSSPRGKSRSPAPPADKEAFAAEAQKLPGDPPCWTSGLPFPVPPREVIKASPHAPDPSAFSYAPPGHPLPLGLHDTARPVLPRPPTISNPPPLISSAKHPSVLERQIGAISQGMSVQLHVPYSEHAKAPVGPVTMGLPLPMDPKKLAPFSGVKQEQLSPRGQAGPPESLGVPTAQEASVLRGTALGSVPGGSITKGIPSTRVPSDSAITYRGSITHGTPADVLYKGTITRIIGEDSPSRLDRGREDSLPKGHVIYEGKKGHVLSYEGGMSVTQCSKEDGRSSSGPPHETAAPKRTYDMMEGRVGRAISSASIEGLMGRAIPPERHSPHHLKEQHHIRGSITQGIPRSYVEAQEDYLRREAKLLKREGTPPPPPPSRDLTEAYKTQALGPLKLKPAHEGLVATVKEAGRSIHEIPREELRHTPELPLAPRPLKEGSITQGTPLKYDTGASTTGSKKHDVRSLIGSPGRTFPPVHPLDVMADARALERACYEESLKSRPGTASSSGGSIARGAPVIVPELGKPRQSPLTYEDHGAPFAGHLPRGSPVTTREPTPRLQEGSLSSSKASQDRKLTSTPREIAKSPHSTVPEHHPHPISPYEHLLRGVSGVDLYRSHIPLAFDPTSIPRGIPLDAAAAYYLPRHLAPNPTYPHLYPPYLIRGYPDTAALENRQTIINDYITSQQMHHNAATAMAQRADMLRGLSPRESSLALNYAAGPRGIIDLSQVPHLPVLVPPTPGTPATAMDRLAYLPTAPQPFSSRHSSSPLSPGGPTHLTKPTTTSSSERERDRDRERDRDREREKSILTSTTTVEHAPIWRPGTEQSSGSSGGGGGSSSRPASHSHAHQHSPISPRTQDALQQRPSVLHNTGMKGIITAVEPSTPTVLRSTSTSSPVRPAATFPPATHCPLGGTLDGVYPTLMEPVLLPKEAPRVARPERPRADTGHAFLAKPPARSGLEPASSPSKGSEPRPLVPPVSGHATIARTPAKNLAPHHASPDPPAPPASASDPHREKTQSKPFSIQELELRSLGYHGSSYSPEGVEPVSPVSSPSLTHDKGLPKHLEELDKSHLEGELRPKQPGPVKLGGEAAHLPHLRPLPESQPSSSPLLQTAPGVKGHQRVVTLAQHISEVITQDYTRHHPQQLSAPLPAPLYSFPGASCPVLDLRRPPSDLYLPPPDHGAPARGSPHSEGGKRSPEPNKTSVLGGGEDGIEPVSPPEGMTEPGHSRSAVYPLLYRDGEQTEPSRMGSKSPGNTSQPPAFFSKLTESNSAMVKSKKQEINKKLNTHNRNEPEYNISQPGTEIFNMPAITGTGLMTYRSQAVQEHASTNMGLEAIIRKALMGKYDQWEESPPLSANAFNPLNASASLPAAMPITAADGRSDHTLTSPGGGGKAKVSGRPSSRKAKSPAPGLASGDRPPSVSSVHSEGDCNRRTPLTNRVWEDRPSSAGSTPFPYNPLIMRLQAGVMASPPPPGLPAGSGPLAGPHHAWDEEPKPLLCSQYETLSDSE

[11] = biological target: Histone deacetylase 2 (Homo sapiens, UniProt Q92769); assay: Inhibition of full length human recombinant C-terminal FLAG-tagged HDAC2 expressed in baculovirus infected Sf9 insect cells using Boc-Lys(epsilon-Ac)-AMC as substrate measured after 90 mins by fluorescence assay; format: cell-based
Chain of Histone deacetylase 2 (Q92769 whole entry): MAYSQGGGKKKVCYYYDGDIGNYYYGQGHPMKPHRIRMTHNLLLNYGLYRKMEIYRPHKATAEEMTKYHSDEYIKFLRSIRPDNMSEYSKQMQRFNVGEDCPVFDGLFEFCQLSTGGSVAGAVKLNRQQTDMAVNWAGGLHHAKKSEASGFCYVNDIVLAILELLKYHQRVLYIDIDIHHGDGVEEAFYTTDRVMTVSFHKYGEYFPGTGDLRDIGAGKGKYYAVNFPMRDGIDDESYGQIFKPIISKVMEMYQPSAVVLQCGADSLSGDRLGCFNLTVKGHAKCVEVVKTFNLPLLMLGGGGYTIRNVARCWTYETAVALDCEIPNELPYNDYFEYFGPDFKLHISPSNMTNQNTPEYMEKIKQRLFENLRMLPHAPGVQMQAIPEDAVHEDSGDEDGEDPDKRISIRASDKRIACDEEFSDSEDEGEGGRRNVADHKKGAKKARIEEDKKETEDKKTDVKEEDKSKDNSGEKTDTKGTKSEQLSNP

[12] = biological target: Histone deacetylase 1 (Homo sapiens, UniProt Q13547); assay: Inhibition of C-terminal FLAG/His-tagged recombinant human HDAC1 expressed in baculovirus infected Sf9 insect cells using Z-(Ac)Lys-AMC as substrate measured after 90 mins by fluorescence assay
Chain of Histone deacetylase 1 (Q13547 whole entry): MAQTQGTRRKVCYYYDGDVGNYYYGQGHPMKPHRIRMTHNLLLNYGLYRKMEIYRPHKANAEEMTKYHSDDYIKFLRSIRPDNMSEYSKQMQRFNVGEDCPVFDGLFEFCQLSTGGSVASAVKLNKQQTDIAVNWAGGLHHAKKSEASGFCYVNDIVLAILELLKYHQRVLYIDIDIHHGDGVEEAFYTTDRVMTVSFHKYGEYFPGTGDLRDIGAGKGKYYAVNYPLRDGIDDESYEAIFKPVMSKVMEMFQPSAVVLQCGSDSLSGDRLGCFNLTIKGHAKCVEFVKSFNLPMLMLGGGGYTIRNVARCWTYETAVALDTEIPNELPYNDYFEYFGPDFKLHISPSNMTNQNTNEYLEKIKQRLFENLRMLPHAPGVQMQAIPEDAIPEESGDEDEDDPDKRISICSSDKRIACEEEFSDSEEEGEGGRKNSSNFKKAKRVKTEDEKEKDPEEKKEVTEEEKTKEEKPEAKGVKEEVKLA

[13] = biological target: T3, Histone deacetylase 8 (Homo sapiens, UniProt Q9BY41); assay: Inhibition of human recombinant HDAC8 expressed in Escherichia coli using Z-L-Lys(epsilon-trifluoroacetyl)-AMC as substrate measured after 90 mins by fluorescence assay
T3 sequence (Q9BY41 whole entry): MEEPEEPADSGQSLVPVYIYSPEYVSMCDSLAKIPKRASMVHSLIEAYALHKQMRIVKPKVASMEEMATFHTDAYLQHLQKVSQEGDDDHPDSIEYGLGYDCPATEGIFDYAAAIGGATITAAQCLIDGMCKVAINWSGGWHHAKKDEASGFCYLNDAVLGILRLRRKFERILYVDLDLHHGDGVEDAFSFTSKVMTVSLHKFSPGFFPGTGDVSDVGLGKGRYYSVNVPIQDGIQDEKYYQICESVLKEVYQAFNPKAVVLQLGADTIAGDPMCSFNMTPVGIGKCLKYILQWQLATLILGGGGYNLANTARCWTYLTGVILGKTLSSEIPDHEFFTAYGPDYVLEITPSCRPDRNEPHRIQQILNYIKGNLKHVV

[14] = Apparent permeability in MDCK cells; format: ADME, cell-based, Canis lupus familiaris; settings: dog
[15] = biological target: Voltage-gated inwardly rectifying potassium channel KCNH2 (Homo sapiens, UniProt Q12809); assay: Inhibition of human ERG
Chain of Voltage-gated inwardly rectifying potassium channel KCNH2 (Q12809 whole entry): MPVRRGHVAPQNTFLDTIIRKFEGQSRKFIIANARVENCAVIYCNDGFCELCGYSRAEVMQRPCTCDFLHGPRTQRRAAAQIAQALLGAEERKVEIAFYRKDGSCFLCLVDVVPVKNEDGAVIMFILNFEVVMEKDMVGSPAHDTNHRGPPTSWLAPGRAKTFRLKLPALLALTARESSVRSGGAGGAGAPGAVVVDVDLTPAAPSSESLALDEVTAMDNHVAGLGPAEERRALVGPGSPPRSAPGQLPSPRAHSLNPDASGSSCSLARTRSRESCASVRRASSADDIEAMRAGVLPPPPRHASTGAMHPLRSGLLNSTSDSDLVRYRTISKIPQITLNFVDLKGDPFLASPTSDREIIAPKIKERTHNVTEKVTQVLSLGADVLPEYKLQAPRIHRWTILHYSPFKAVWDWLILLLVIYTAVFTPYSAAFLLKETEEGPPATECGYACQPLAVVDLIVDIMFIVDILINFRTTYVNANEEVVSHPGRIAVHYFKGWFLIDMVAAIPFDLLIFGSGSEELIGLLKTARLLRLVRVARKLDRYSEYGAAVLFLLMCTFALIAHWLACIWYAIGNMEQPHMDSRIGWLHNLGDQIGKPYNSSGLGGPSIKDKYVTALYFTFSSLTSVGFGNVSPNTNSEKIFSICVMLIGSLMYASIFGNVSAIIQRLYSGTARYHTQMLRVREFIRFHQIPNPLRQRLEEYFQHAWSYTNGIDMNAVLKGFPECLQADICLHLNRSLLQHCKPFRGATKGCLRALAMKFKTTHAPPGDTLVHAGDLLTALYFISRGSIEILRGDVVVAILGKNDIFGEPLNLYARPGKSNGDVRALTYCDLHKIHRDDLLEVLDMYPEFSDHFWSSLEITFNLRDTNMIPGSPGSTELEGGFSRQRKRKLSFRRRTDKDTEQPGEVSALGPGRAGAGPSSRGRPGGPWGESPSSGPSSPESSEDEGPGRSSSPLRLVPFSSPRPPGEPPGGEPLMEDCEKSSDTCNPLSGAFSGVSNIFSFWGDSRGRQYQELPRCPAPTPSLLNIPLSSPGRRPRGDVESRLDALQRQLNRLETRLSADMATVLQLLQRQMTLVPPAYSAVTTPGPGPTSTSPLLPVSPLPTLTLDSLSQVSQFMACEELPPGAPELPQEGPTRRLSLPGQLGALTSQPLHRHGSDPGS

[16] = Apparent permeability in human Caco2 cells; format: ADME, cell-based, Caco-2

Structure (SMILES)	IC50 [1] [µM]	IC50 [2] [µM]	IC50 [3] [µM]	IC50 [4] [µM]	IC50 [5] [µM]	IC50 [6] [µM]	IC50 [7] [µM]	IC50 [8] [µM]	IC50 [9] [µM]	IC50 [10] [µM]	IC50 [11] [µM]	IC50 [12] [µM]	IC50 [13] [µM]	Papp ([14]; MDCK, read-out: Papp) [×10⁻⁶ cm/s]	IC50 [15]	Papp ([16]; Caco-2, read-out: Papp) [×10⁻⁶ cm/s]	Papp ([14]; mdck) [×10⁻⁶ cm/s]	Papp ([16]; caco-2) [×10⁻⁶ cm/s]
CN(C)c1ccc(C(=O)N(CCCCCC(=O)NO)CC(=O)NC(C)(C)C)cc1	1.97	2.06	2.18	2.49	1.03	1.78	5.18	4.04										
Cc1cc(C)cc(C(=O)N(CCCCCC(=O)NO)CC(=O)NC2CCCCC2)c1	0.64	0.88	1.14	0.93	0.16	0.71	3.81	1.13	0.214	0.06	0.084	0.0274	7.4					
CC(C)(C)NC(=O)CN(CCCCCC(=O)NO)C(=O)c1ccccc1	4.59	8.98	19.5	9.51	20.7	6.85	42.4	16.7										
O=C(CCCCCN(CC(=O)NC1CCCCC1)C(=O)c1ccccc1)NO	1.08	1.66	10.3	1.13	3.46	1.34	8.21	3.8										
CN(C)c1ccc(C(=O)N(CCCCCC(=O)NO)C(C)(C)C(=O)NC2CCCCC2)cc1	28.8	24.5	46.1	30.8	68.5	18.2	107	47.7										
O=C(CCCCCN(C(=O)c1ccccc1)C1(C(=O)NC2CCCCC2)CCCCC1)NO	10.2	13.4	77.5	10.1	42.6	14.3	50.5	44.1										
Cc1ccc(NC(=O)CN(CCCCCC(=O)NO)C(=O)c2cc(C)cc(C)c2)cc1	0.8	1.3	2.11	0.81	1.27	0.95	2.18	1.67										
Cc1cc(C)cc(C(=O)N(CCCCCC(=O)NO)CC(=O)NCc2ccccc2)c1	0.41	0.63	1.41	0.35	0.33	0.37	1.85	0.7	0.135	0.026	0.061	0.0247	7.33					
O=C(CCCCCN1C(=O)c2ccccc2N(Cc2ccccc2)C(=O)[C@@H]1Cc1ccccc1)NO														10.9	2.23 µM	14.4		
CC(C)CNC(=O)CN(CCCCCC(=O)NO)C(=O)c1ccc(N(C)C)cc1	0.8	1.09	2.11	0.82	1.9	0.87	3.19	1.87										
CC(C)(C(=O)NC1CCCCC1)N(CCCCCC(=O)NO)C(=O)c1ccccc1	43	37.9	4.07	44.9	295	26.2	281	66.9										
Cc1ccc(NC(=O)CN(CCCCCC(=O)NO)C(=O)c2ccc(N(C)C)cc2)cc1	0.49	0.66	0.6	0.68	0.4	0.37	1.61	0.53	0.106	0.016	0.146	0.0964	6.76					
Cc1ccc(C(C(=O)NC2CCCCC2)N(CCCCCC(=O)NO)C(=O)c2ccccc2)cc1 (stereo unspecified)	3.22	2.81	19	3.63	2.09	2.94	4.29	4.52										
O=C(CCCCCN(C(=O)c1ccccc1)C(C(=O)NC1CCCCC1)c1ccccc1)NO (stereo unspecified)	2.65	3.14	5.28	2.92	3.87	2.06	5.18	6.36										
CN(C)c1ccc(C(=O)N(CC(=O)NC2CCCCC2)Cc2ccc(C(=O)NO)cc2)cc1														6.6	21.5 µM and 52.1 µM	9.8	5.8	10.1
CN(C)c1ccc(C(=O)N(CCCCCC(=O)NO)CC(=O)NC2CCCCC2)cc1	1.52	1.42	35.5	1.9	1.54	1.4	3.31	2.97										
O=C(CCCCCN(CC(=O)NC1CCCCC1)C(=O)c1cccc2ccccc12)NO	0.6	0.96	5.6	1.29	0.26	0.75	4.12	2.4										
CC(C)(C)NC(=O)C(C)(C)N(CCCCCC(=O)NO)C(=O)c1ccccc1	132	127	13.8	102	207	92.5	579	75.8										
